Experiment [1] addresses T1, full length recombinant Pim-2 protein (Homo sapiens, UniProt Q9P1W9).
T1 construct: by full length recombinant Pim-1, Pim-2, or Pim-3 protein; hexahistidine tag followed by a thrombin cleavage site (N); made in house; host or cells: Sf9 (baculovirus) or E. coli (pET28)
The experiment in a line: Pim-2 enzyme assay (HTRF, phosphorylation of biotinylated-BAD (S112) peptide). Format: biochemical. The source says: (§1) These cDNAs were used as templates in PCR reactions to produce full-length DNA clones of the PIMs. […] PCR products were digested with […] and EcoRI for Pim-1 and BamHI and EcoRI for Pim-2 and ligated into a modified baculovirus transfer vector (pFastBac1) cleaved with BamHI and EcoRI. For bacterial expression, the same cleaved PCR products encoding Pim-1 or Pim-2 were ligated into a modified E. coli expression vector pET28(a) cleaved with BamHI and EcoRI Amino-terminal hexahistidine tags followed by a thrombin cleavage site were previously added to the vectors using standard methods of molecular biology. Recombinant baculoviruses expressing Pim-1 or Pim-2 were made using standard methods (Fastbac manual, Invitrogen, Carlsbad, Calif.). Infection of Sf9 cells was done at an m.o.i. of greater than 5 for 24-48 h. Cells were harvested by centrifugation and frozen at −80 C. For E. coli expression, cells carrying pET28-His6-Th-Pim-1 or pET28-His6-Th-Pim-2 were picked from a single colony and grown o/n in LB media. The o/n culture was used to inoculate a 2 liter flask with 500 mL media. This was grown o/n and used to inoculate 15-20 liters of Terrific Broth in a New Brunswick Scientific fermentor. The E. coli were grown at 37° C. to and OD600>1.6. The temperature was dropped to 18° C. and o/n expression was induced with 0.5 mM IPTG. Cells were harvested by centrifugation and frozen at −80° C.
(§2) This step was repeated 3× and the resin was transferred to a 2.5 cm glass column. Ten column volumes of wash buffer (0.05 M HEPES, pH 8.0, 0.1 M NaCl, 0.01 M 2-mercaptoethanol, 10% (w/v) glycerol) were applied to the resin followed by 10 column volumes of elution buffer (0.05 M HEPES, pH 8.0, 0.25 M NaCl, 0.01 M 2-mercaptoethanol, 10% (w/v) glycerol, 0.1 M imidazole). Fractions were analyzed by SDS-PAGE and those containing the protein of interest were pooled and concentrated. The concentrated protein was applied to an Amersham Superdex 75 (XK 26/60) column equilibrated in 0.025 M Tris-HCl, pH 7.5, 0.1 M NaCl, 0.01 M 2-mercaptoethanol, 10% (w/v) glycerol. […] Fractions containing the monomeric protein of interest were pooled, concentrated to ˜2 mg/mL, and stored at −80° C.
(§3) The phosphorylation of biotinylated-BAD (S112) peptide by full length recombinant Pim-1, Pim-2, or Pim-3 protein was detected with streptavidin:Allophycocyanin (APC) conjugate and a europium (Eu) labeled antibody directed against phosphorylated-BAD (S112). […] The fluorescence is directly proportional to the amount of phosphorylated BAD peptide present in the reaction.
(§4) A reference compound was included on each assay plate in order to validate that plate; on one plate of every assay run, two additional reference compounds were included.
(§5) The final buffer conditions were as follows: 60 mM Hepes, pH 7.0, 0.05% BSA, 2 mM DTT. […] The reaction was stopped by the addition of 3 mM EDTA, and fluorescence was measured by an HTRF® Rubystar microplate reader. For each plate, percent of control (POC) values were calculated for each well. Values for the IC50 IP were estimated using a standard 4-parameter logistic model.
On the technique in general: Time-resolved FRET reads energy transfer from a long-lived donor to a nearby acceptor.

The target of experiment [2] is T2, full length recombinant Pim-1 protein (Homo sapiens, UniProt P11309).
T2 construct: by full length recombinant Pim-1, Pim-2, or Pim-3 protein; hexahistidine tag followed by a thrombin cleavage site (N); made in house; host or cells: Sf9 (baculovirus) or E. coli (pET28)
The experiment in a line: Pim-1 enzyme assay (HTRF, phosphorylation of biotinylated-BAD (S112) peptide). The experiment is classed as biochemical. The note with it: read-out: Pim_1_IC50.
From the text: as §1, §2, §3, §4, §5

Each structure is given as a SMILES string. Where a name gives a salt, the structure may show the parent alone. Read-outs that look alike come from different tables or passages of the source.

T2 sequence (P11309 whole entry): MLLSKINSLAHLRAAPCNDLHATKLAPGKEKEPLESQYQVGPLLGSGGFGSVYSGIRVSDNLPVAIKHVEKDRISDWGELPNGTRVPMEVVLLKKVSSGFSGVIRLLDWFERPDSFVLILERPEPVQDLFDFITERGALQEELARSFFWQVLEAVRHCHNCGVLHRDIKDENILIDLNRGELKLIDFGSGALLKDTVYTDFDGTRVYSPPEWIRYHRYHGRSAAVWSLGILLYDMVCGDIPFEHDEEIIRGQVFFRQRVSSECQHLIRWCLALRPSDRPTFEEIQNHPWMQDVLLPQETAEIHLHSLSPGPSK
T1 sequence (Q9P1W9 whole entry): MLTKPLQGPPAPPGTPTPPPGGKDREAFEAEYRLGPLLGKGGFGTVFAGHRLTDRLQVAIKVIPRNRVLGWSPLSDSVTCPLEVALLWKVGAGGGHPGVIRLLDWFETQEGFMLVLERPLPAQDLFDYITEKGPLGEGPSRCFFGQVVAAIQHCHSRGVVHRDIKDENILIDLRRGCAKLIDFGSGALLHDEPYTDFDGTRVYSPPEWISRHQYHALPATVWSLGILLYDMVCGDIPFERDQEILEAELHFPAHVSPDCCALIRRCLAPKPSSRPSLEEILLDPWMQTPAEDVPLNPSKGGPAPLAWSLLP

On to `Cn1nccc1-c1ccc2[nH]nc(-c3cncc(O[C@H]4CNCCC45CC5)n3)c2c1` [Example 252, 3-(6-((4R)-6-azaspiro[2.5]oct-4-yloxy)-2-pyrazinyl)-5-(1-methyl-1H-pyrazol-5-yl)-1H-indazole], for which the IC50 in experiment [1] (read-out: Pim2_IC50) worked out at 0.121 µM; in experiment [2], 0.07 µM.

`N#Cc1ccc2[nH]nc(-c3cncc(O[C@H]4CNCCC45CC5)n3)c2c1` [Example 254, 3-(6-((4R)-6-azaspiro[2.5]oct-4-yloxy)-2-pyrazinyl)-1H-indazole-5-carbonitrile]: the IC50 is greater than 1 µM in experiment [1] (Pim2_IC50 (uM)) and 0.364 µM in experiment [2].

As to `C#Cc1ccccc1-c1ccc2[nH]nc(-c3cncc(O[C@H]4CNCCC45CC5)n3)c2c1` [Example 266, 3-(6-((4R)-6-azaspiro[25]oct-4-yloxy)-2-pyrazinyl)-5-(2-ethynylphenyl)-1H-indazole bis(2,2,2-trifluoroacetate)], the IC50 was 0.044 µM in experiment [1] (read-out: Pim2_IC50) and 0.013 µM in experiment [2].

For `C=C(Cl)c1ccccc1-c1ccc2[nH]nc(-c3cncc(O[C@H]4CNCCC45CC5)n3)c2c1` [Example 267, 3-(6-((4R)-6-azaspiro[25]oct-4-yloxy)-2-pyrazinyl)-5-(2-(1-chloroethenyl)phenyl)-1H-indazole bis(2,2,2-trifluoroacetate)], the IC50 in experiment [1] (read-out: Pim2_IC50) was found to be 0.044 µM; in experiment [2], 0.03 µM.

Regarding `CC(=O)c1ccc2[nH]nc(-c3cncc(O[C@H]4CNCCC45CC5)n3)c2c1` [Example 268, 1-(3-(6-((4R)-6-azaspiro[25]oct-4-yloxy)-2-pyrazinyl)-1H-indazol-5-yl)ethanone 2,2,2-trifluoroacetate], the IC50 is 0.146 µM in experiment [1] (read-out: Pim2_IC50) and 0.105 µM in experiment [2].

As to `OCCc1ccc2[nH]nc(-c3cncc(O[C@H]4CNCCC45CC5)n3)c2c1` [Example 270, 2-(3-(6-((4R)-6-azaspiro[25]oct-4-yloxy)-2-pyrazinyl)-1H-indazol-5-yl)ethanol hydrochloride], the IC50 in experiment [1] (read-out: Pim2_IC50) amounted to 0.166 µM; in experiment [2], 0.046 µM.

Regarding `CC(CO)c1ccc2c(c1)c(-c1cncc(O[C@H]3CNCCC34CC4)n1)nn2C` (stereo partly drawn) [Example 271, 2-(3-(6-((4R)-6-azaspiro[25]oct-4-yloxy)-2-pyrazinyl)-1-methyl-1H-indazol-5-yl)-1-propanol], the values for the IC50 in experiment [1] (read-out: Pim2_IC50) and in experiment [2] were 0.2 µM and 0.159 µM, respectively.

On to `c1cc2[nH]nc(-c3cncc(O[C@H]4CNCCC45CC5)n3)c2cc1-c1cncc(C2CC2)n1` [Example 275, 3-(6-((4R)-6-azaspiro[2.5]oct-4-yloxy)-2-pyrazinyl)-5-(6-cyclopropyl-2-pyrazinyl)-1H-indazole], for which the IC50 in experiment [1] (read-out: Pim2_IC50) came out at 0.099 µM; in experiment [2], 0.009 µM.

As for `COc1cc(-c2c[nH]c3ccc(-c4c(F)cccc4F)cc23)nc(N2CCC(N)CC2)n1` [Example 276, 1-(4-(5-(2,6-difluorophenyl)-1H-indol-3-yl)-6-methoxypyrimidin-2-yl)piperidin-4-amine], the IC50 was 0.929 µM in experiment [1] (read-out: Pim2_IC50) and 0.344 µM in experiment [2].

In the case of `COc1cc(-c2c[nH]c3ccc(-c4c(F)cccc4F)cc23)nc(N[C@@H]2CCCNC2)n1` [Example 278, (R)-4-(5-(2,6-difluorophenyl)-1H-indol-3-yl)-6-methoxy-N-(piperidin-3-yl)pyrimidin-2-amine], the IC50 in experiment [1] (read-out: Pim2_IC50) was determined as 0.7 µM; in experiment [2] it was 0.565 µM.

On to `CC(C)Oc1cncc(-c2ccc3[nH]cc(-c4nnc(N5CCC(N)CC5)o4)c3c2)n1` [Example 280, 1-(5-(5-(6-isopropoxypyrazin-2-yl)-1H-indol-3-yl)-1,3,4-oxadiazol-2-yl)piperidin-4-amine], for which the IC50 in experiment [1] (read-out: Pim2_IC50) is 0.161 µM; in experiment [2] it was 0.022 µM.

Take `CC(C)Oc1cncc(-c2ccc3[nH]cc(-c4nn(C(C)C)c(=O)o4)c3c2)n1` [Example 281, 5-(5-(6-isopropoxypyrazin-2-yl)-1H-indol-3-yl)-3-isopropyl-1,3,4-oxadiazol-2(3H)-one]: the IC50 in experiment [1] (read-out: Pim2_IC50) was 0.597 µM; in experiment [2], 0.07 µM.

Take `CN(C)C(=O)c1ccc2[nH]nc(-c3ccnc(N4CCC(N)CC4)n3)c2c1` [Example 284, 3-(2-(4-aminopiperidin-1-yl)pyrimidin-4-yl)-N,N-dimethyl-1H-indazole-5-carboxamide]: the figures for the IC50 in experiment [1] (read-out: Pim2_IC50) and in experiment [2] were greater than 1 µM and 0.839 µM, respectively.

Turning to `CN(C)c1nc(-c2n[nH]c3ccc(Nc4c(F)cccc4F)cc23)cc(=O)[nH]1` [Example 285, 6-(5-((2,6-difluorophenyl)amino)-1H-indazol-3-yl)-2-(dimethylamino) pyrimidin-4(3H)-one], the IC50 in experiment [1] (read-out: Pim2_IC50) was 0.067 µM; in experiment [2], 0.02 µM.

In the case of `COc1cnnc(-c2c[nH]c3ccc(-c4ccccc4F)nc23)c1` [Example 286, 5-(2-fluorophenyl)-3-(5-methoxypyridazin-3-yl)-1H-pyrrolo[3,2-b]pyridine], the IC50 in experiment [1] (read-out: Pim2_IC50) was greater than 1 µM; in experiment [2], 0.581 µM.

Take `NC1CCN(c2cc(-c3c[nH]c4ccc(-c5ccccc5F)nc34)nc(O)n2)CC1` [Example 288, 4-(4-aminopiperidin-1-yl)-6-(5-(2-fluorophenyl)-1H-pyrrolo[3,2-b]pyridin-3-yl)pyrimidin-2-ol]: the IC50 in experiment [1] (read-out: Pim2_IC50) came to 0.968 µM; in experiment [2], 0.364 µM.

In the case of `N#Cc1cc(-c2ccc3[nH]cc(-c4cncc(O[C@@H]5CCCNC5)n4)c3c2)ccc1F` [Example 295], the IC50 in experiment [1] (read-out: Pim2_IC50) worked out at 0.075 µM; in experiment [2], 0.034 µM.

In the case of `N#Cc1ccc(-c2ccc3[nH]cc(-c4cncc(O[C@@H]5CCCNC5)n4)c3c2)cc1F` [Example 296], the results for the IC50 in experiment [1] (read-out: Pim2_IC50) and in experiment [2] were 0.055 µM and 0.037 µM, respectively.

Take `c1cc(OC2CCCC2)nc(-c2ccc3[nH]cc(-c4cncc(O[C@@H]5CCCNC5)n4)c3c2)c1` [Example 298]: the results for the IC50 in experiment [1] (read-out: Pim2_IC50) and in experiment [2] were 0.234 µM and 0.031 µM, respectively.

Regarding `c1cnn(-c2cnc(-c3ccc4[nH]cc(-c5cncc(O[C@@H]6CCCNC6)n5)c4c3)cn2)c1` [Example 300], the IC50 in experiment [1] (read-out: Pim2_IC50) was 0.115 µM; in experiment [2], 0.042 µM.

Consider `CC1CCN(c2cccc(-c3ccc4[nH]cc(-c5cncc(O[C@@H]6CCCNC6)n5)c4c3)n2)CC1` [Example 304], for which the results for the IC50 in experiment [1] (read-out: Pim2_IC50) and in experiment [2] were 0.619 µM and 0.052 µM, respectively.

As to `CCNC(=O)c1ccc(C)c(-c2ccc3[nH]cc(-c4cncc(O[C@@H]5CCCNC5)n4)c3c2)c1` [Example 313], the IC50 in experiment [1] (read-out: Pim2_IC50) amounted to 0.515 µM; in experiment [2], 0.234 µM.

As for `Cc1ccc(C(=O)NC2CCC2)cc1-c1ccc2[nH]cc(-c3cncc(O[C@@H]4CCCNC4)n3)c2c1` [Example 314], the IC50 in experiment [1] (read-out: Pim2_IC50) stood at 0.428 µM; in experiment [2] it was 0.288 µM.

Regarding `COc1ccc(Cl)cc1-c1ccc2[nH]cc(-c3cncc(O[C@@H]4CCCNC4)n3)c2c1` [Example 317], the IC50 in experiment [1] (read-out: Pim2_IC50) amounted to 0.297 µM; in experiment [2], 0.053 µM.

With `c1cc2[nH]cc(-c3cncc(O[C@@H]4CCCNC4)n3)c2cc1-c1cncc(OC2CCCC2)n1` [Example 318], the IC50 in experiment [1] (read-out: Pim2_IC50) is 0.347 µM; in experiment [2], 0.035 µM.

As for `CN(C)c1cnc(-c2ccc3[nH]cc(-c4cncc(O[C@@H]5CCCNC5)n4)c3c2)cn1` [Example 319], the results for the IC50 in experiment [1] (read-out: Pim2_IC50) and in experiment [2] were 0.068 µM and 0.024 µM, respectively.

As to `CC(C)c1ccc(-c2ccc3[nH]cc(-c4cncc(O[C@@H]5CCCNC5)n4)c3c2)cc1` [Example 322], the IC50 turned out to be 0.099 µM in experiment [1] (read-out: Pim2_IC50) and 0.031 µM in experiment [2].

Consider `O=C(O)c1cccc(-c2ccc3[nH]cc(-c4cncc(O[C@@H]5CCCNC5)n4)c3c2)c1` [Example 325], for which the IC50 was determined as 0.046 µM in experiment [1] (read-out: Pim2_IC50) and 0.021 µM in experiment [2].

For `COc1ncccc1-c1ccc2[nH]cc(-c3cncc(O[C@@H]4CCCNC4)n3)c2c1` [Example 328], the IC50 in experiment [1] (read-out: Pim2_IC50) is 0.141 µM; in experiment [2] it was 0.028 µM.

With `COc1ccc(OC)c(-c2ccc3[nH]cc(-c4cncc(O[C@@H]5CCCNC5)n4)c3c2)c1` [Example 329], the results for the IC50 in experiment [1] (read-out: Pim2_IC50) and in experiment [2] were 0.514 µM and 0.083 µM, respectively.

The record behind these values is patent US9090593B2, “Bicyclic compounds as Pim inhibitors” (AMGEN INC., priority 2010, dated 2015).
